Here are results for seven molecules from ChEMBL document CHEMBL1142340 (Bioorg Med Chem Lett, 2008).

Data set [1] relates to A549. Kind of data set: Antiproliferative activity against human A549 cells after 3 days. It is filed as functional, cell-based. Conditions: A549, 72 h.
In data set [2] the target is Histone deacetylase. Kind of data set: Inhibition of human HDAC in HeLa nuclear extracts.
Data set [3] relates to A549. The data set is described as follows: Antiproliferative activity against human A549 cells at 1 mM after 3 days. Conditions: A549, 72 h. It is filed as functional.
In data set [4] the target is Histone deacetylase (Homo sapiens) (UniProt Q13547+O15379+Q9UBN7+Q92769+Q9UQL6+Q8WUI4+Q9BY41+Q96DB2+P56524+Q9UKV0+Q969S8). Kind of data set: Inhibition of human HDAC in A549 cells assessed as increase in histone-H4 acetylation at 150 uM after 24 hrs by Western blot. It is filed as cell-based.
Data set [5] can be described thus: Dissociation constant, pKa of the compound. It is filed as physicochemical.

Active and inactive are the calls of the source. The calls are words filed in the database; no cut-off is given here.

The IC50 is the concentration needed to halve the response being measured. Read a low IC50 as higher potency. What is called inhibition is the change of the read-out against control, counted positive when it falls. A lower inhibition goes with a weak effect. What is called pKa is the pH at which an ionisable group is half protonated. A low value points to a group that gives up its proton readily.

As to `CS(=O)(=O)SCCO`, the half-maximal inhibitory concentration (IC50) was 161 µM in data set [1] and 102 µM in data set [2].
Regarding `CCCC(CCC)C(=O)O` [VALPROIC ACID], in data set [1], the IC50 is greater than 1000 µM. For the same molecule, in data set [3], the inhibition at 1000 µM was 24%. Besides, in data set [4], the result was Active.
Take `CCCC(CCC)C(=O)Oc1ccc(-c2cc(=S)ss2)cc1`: the IC50 in data set [1] is 89 µM; in data set [2], 56.4 µM.
As for `Br.CS(=O)(=O)SCCN`, the values for the 50% inhibitory concentration (IC50) in data set [1] and in data set [2] were 154 µM and 198 µM, respectively.
In turn, `CCCC(CCC)C(=O)NCCSS(C)(=O)=O` gave an IC50 in data set [2] of 17.5 µM.
Turning to `Oc1ccc(-c2cc(=S)ss2)cc1`, the IC50 in data set [1] came out at 66 µM; in data set [2], 0.45 µM. In addition, the pKa in data set [5] worked out at 7.86.
Turning to `CCCC(CCC)C(=O)OCCSS(C)(=O)=O`, the 50% inhibitory concentration (IC50) in data set [1] stood at 154 µM; in data set [2] it was 9.6 µM.
